Eight molecules from patent publication US8476298B2 (Exelixis, Inc., priority 2003, dated 2013) can be followed below.

For test [1], the target named is T1, KDR (baculovirus expressed human KDR kinase domain D807-V1356) (Homo sapiens, UniProt P35968).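 Further: Luciferase-coupled chemiluminescent kinase assay, activity read as percent ATP left after 4 h reaction at ambient temperature, ATP near KM, 10-point dose-response in 384-well plates.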
T1 construct: human KDR kinase domain D807-V1356; host or cells: baculovirus expression
T1 sequence (P35968 807-1356): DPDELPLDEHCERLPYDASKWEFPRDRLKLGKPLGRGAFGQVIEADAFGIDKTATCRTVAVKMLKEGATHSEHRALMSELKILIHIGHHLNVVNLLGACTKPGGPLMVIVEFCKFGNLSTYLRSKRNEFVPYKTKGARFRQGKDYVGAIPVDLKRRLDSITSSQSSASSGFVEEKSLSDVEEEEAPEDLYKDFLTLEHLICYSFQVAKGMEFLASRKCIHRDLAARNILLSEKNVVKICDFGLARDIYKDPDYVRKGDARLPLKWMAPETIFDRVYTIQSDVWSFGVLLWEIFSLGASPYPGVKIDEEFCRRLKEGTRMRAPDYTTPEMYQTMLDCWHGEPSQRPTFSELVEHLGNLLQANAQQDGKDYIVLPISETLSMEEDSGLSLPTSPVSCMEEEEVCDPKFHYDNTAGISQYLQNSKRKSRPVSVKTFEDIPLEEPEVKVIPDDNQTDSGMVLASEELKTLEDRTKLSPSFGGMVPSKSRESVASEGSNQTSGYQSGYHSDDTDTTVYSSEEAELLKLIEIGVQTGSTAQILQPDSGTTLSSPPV
The experiment in a line: biochemical.

Test [2] has as its target T2, Flt-3 (baculovirus expressed human Flt-3 kinase domain R571-S993) (Homo sapiens, UniProt P36888).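 Further: Luciferase-coupled chemiluminescent kinase assay, activity read as percent ATP left after a 3 h reaction at room temperature, ATP near KM, 10-point dose-response.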
T2 construct: human Flt-3 kinase domain R571-S993; host or cells: baculovirus expression
T2 sequence (P36888 571-993): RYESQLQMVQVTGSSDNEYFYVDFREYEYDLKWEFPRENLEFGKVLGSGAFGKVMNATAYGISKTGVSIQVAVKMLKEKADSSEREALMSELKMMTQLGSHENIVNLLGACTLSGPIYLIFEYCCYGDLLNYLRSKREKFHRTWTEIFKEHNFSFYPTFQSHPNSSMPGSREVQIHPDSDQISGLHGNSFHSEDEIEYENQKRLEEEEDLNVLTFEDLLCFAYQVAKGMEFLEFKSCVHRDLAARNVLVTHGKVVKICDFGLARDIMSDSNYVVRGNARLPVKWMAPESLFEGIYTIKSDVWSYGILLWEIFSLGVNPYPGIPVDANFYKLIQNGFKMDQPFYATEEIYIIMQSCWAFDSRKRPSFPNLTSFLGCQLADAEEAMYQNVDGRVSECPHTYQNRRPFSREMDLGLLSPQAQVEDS
The experiment in a line: biochemical. The settings on record: read-out: flt3 IC50.
Protocol: Kinase activity and compound inhibition are investigated using one or more of the three assay formats described below. The ATP concentrations for each assay are selected to be close to the Michaelis-Menten constant (KM) for each individual kinase. Dose-response experiments are performed at 10 different inhibitor concentrations in a 384-well plate format.
Biochemical activity for flt-3 was assessed using a Luciferase-Coupled Chemiluminescent Kinase assay (LCCA) format. Kinase activity was measured as the percent ATP remaining following the kinase reaction. Remaining ATP was detected by luciferase-luciferin-coupled chemiluminescence. […] The mixture is incubated at ambient temperature for 3 hours after which 20 uL luciferase-luciferin mix is added and the chemiluminescent signal read using a Wallac Victor^2 reader.

In test [3] the target is T3, c-Met (baculovirus expressed human c-Met kinase domain P948-S1343) (Homo sapiens, UniProt P08581).
T3 construct: human c-Met kinase domain P948-S1343; host or cells: baculovirus expression
T3 sequence (P08581 1011-1343 limits assumed): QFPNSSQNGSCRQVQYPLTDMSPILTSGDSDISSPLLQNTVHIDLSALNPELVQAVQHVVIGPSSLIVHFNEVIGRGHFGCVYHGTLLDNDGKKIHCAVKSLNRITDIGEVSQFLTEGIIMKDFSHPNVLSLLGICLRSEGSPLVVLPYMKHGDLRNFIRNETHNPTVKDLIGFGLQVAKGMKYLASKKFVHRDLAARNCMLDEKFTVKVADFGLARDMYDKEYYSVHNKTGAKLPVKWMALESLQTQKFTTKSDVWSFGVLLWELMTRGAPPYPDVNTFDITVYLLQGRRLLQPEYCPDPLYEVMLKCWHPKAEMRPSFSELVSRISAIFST
In words: c-Met Luciferase-Coupled Chemiluminescent Kinase assay (LCCA).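 Further: kinase activity read as percent ATP left after reaction, by luciferase-luciferin chemiluminescence, with 1 µM ATP and 1 µM poly-EY substrate, 2 h at ambient temperature, 10-point dose-response.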 The class given is biochemical.

SMILES strings stand for the structures.

The IC50 is the midpoint of a concentration-inhibition curve. As to `CCN(CC)CCCOc1cc2nccc(Oc3ccc(NC(=O)[C@]4(C(=O)Nc5ccc(F)cc5)C[C@H]4C)cc3F)c2cc1OC` [Example 359, (1R,2R)-N-(4-{[7-{[3-(diethylamino)propyl]oxy}-6-(methyloxy)quinolin-4-yl]oxy}-3-fluorophenyl)-N′-(4-fluorophenyl)-2-methylcyclopropane-1,1-dicarboxamide], the 50% inhibitory concentration (IC50) in test [1], in test [2] and in test [3] was less than 50 nM throughout.

Regarding `COc1cc2c(Oc3ccc(NC(=O)C4(C(=O)Nc5ccc(F)cc5)[C@H](C)[C@H]4C)cc3F)ncnc2cc1OCCCN1CCOCC1` (stereo partly drawn) [Example 383, (2R,3R)-N-[3-fluoro-4-({6-(methyloxy)-7-[(3-morpholin-4-ylpropyl)oxy]quinazolin-4-yl}oxy)phenyl]-N′-(4-fluorophenyl)-2,3-dimethylcyclopropane-1,1-dicarboxamide], the IC50 is less than 50 nM in test [1], 500 to 5000 nM in test [2] and less than 50 nM in test [3].

Turning to `CCN(CC)CCOc1cc2ncnc(Oc3ccc(NC(=O)C4(C(=O)Nc5ccc(F)cc5)CC4(C)C)cc3F)c2cc1OC` (stereo not drawn) [Example 378, N-(4-{[7-{[2-(diethylamino)ethyl]oxy}-6-(methyloxy)quinazolin-4-yl]oxy}-3-fluorophenyl)-N′-(4-fluorophenyl)-2,2-dimethylcyclopropane-1,1-dicarboxamide], the concentration for half-maximal inhibition (IC50) in test [1] was 50 to 500 nM; in test [2], 500 to 5000 nM; in test [3] it was less than 50 nM.

With `CCN(CC)CCOc1cc2nccc(Oc3ccc(NC(=O)[C@]4(C(=O)Nc5ccc(F)cc5)C[C@@H]4C)cc3F)c2cc1OC` [Example 362, (1R,2S)-N-(4-{[7-{[2-(diethylamino)ethyl]oxy}-6-(methyloxy)quinolin-4-yl]oxy}-3-fluorophenyl)-N′-(4-fluorophenyl)-2-methylcyclopropane-1,1-dicarboxamide], the IC50 in test [1], in test [2] and in test [3] was less than 50 nM in each case.

For the molecule `COc1cc2c(Oc3ccc(NC(=O)[C@]4(C(=O)Nc5ccc(F)cc5)C[C@@H]4C)cc3F)ccnc2cc1OCCCN1CCN(C)CC1` [Example 354, (1R,2S)-N-{3-fluoro-4-[(6-(methyloxy)-7-{[3-(4-methylpiperazin-1-yl)propyl]oxy}quinolin-4-yl)oxy]phenyl}-N′-(4-fluorophenyl)-2-methylcyclopropane-1,1-dicarboxamide], the half-maximal inhibitory concentration (IC50) in test [1], in test [2] and in test [3] was less than 50 nM throughout.

In the case of `CCN(CC)CCCOc1cc2ncnc(Oc3ccc(NC(=O)C4(C(=O)Nc5ccc(F)cc5)CCC4)cc3F)c2cc1OC` [Example 380, N-(4-{[7-{[3-(diethylamino)propyl]oxy}-6-(methyloxy)quinazolin-4-yl]oxy}-3-fluorophenyl)-N′-(4-fluorophenyl)cyclobutane-1,1-dicarboxamide], the values for the concentration for half-maximal inhibition (IC50) in test [1], in test [2] and in test [3] were less than 50 nM, 50 to 500 nM and less than 50 nM, respectively.

Turning to `COc1cc2nccc(Oc3ccc(NC(=O)C4(C(=O)NCc5ccc(F)cc5)CC4)cc3)c2cc1OC` [Example 392, N-(4-{[6,7-bis(methyloxy)quinolin-4-yl]oxy}phenyl)-N′-[(4-fluorophenyl)methyl]cyclopropane-1,1-dicarboxamide], the half-maximal inhibitory concentration (IC50) is 50 to 500 nM in test [1], less than 50 nM in test [2] and 50 to 500 nM in test [3].

Consider `COc1cc2nccc(Oc3ccc(NC(=O)C4(C(=O)Nc5cccc(CN6CCOCC6)c5)CC4)cc3)c2cc1OC` [Example 396, N-(4-{[6,7-bis(methyloxy)quinolin-4-yl]oxy}phenyl)-N′-[3-(morpholin-4-ylmethyl)phenyl]cyclopropane-1,1-dicarboxamide], for which the concentration for half-maximal inhibition (IC50) in test [1] was less than 50 nM; in test [2], less than 50 nM; in test [3] it was 50 to 500 nM.
